Data taken from PMC12530843, “Identification of a New Interesting BAG3 Modulator Able to Disrupt Cancer‐Related Pathways” (Chemmedchem, 2025).
Entries after “also recorded” stand apart in the source; their conditions may differ.

Experiments:
[1] = target: T1, BAG3-BD (Homo sapiens, UniProt O95817); experiment: SPR binding on BAG3 BAG domain; conditions: Biacore T200, 25 °C, 1:1 model; for Kd: read-out: BAG3–BD KD ± SD
T1 construct: the BAG3 domain (BAG3‐BD) was sourced from ARETA International S.r.l; (Gerenzano, Italy); purchased ARETA International S.r.l
T1 sequence (O95817 421-498 limits assumed): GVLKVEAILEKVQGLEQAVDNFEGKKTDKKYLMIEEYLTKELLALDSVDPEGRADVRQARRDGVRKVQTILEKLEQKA
Protocol: (§1) Recombinant human BAG3 protein (Bcl2‐associated athanogene 3) was obtained from Novus Biologicals (Littleton, Colorado), while the BAG3 domain (BAG3‐BD) was sourced from ARETA International S.r.l. (Gerenzano, Italy). We used (Z)‐ethyl 2‐(5‐(3,4‐dihydroxybenzylidene)‐2,4‐dioxothiazolidin‐3‐yl)acetate (LK4), a BAG3 inhibitor previously identified by our group.^[ [13] ^] SPR spectroscopy was performed using a Biacore T200 optical biosensor with CM5 sensor chips (Cytiva, Marlborough, USA) to assess the affinity of synthesized molecules for BAG3 and BAG‐BD. BAG3 and BAG‐BD were immobilized on CM5 sensor chip using standard amine‐coupling protocol.^[ [15] ^, [42] ^, [43] ^] BAG3 protein (0.067 μg μL^−1 in 10 mM CH3COONa, pH 4.5) was immobilized at a flow rate of 10 μL min^−1, achieving a surface density of 14 kRU, while BAG3‐BD (0.38 μg μL^−1 in 10 mM CH3COONa, pH 4.5) reached a density of 4 kRU. For the experiments, BAG3 and BAG‐BD surfaces, as well as an unmodified reference surface, were prepared for simultaneous analysis. Compounds 1–10 and LK4 were initially dissolved to 10 mM in 100% DMSO, then diluted 1:20 (v/v) in PBS‐P buffer (0.2 M phosphate buffer, 27 mM KCl, 1.37 M NaCl, 0.5% surfactant P20) resulting in a final DMSO concentration of 5.0%. The compounds were injected in a concentration series (1:2 dilution, 10 different concentrations) ranging from 0 to 100 μM, using 96‐well plates. SPR experiments were conducted at 25 °C with a flow rate of 20 μL min^−1, featuring a 90 s association phase followed by a 400 s dissociation phase. Changes in mass, recorded as resonance units (RU), were used to quantify binding responses, while K D values were determined using Biaevaluation software by globally fitting the double‐referenced association and dissociation data to a 1:1 interaction model. (See Figure S43–S56, Supporting Information).

[2] = target: T2, BAG3 full length (Homo sapiens, UniProt O95817); experiment: SPR binding on full-length BAG3; conditions: Biacore T200, 25 °C, 1:1 model; for Kd: read-out: BAG3 FULL KD ± SD
T2 construct: purchased Novus Biologicals (Littleton, Colorado)
Protocol: as §1

[3] = test system: HeLa cells; design: method as in PMID 29926854; conditions: reported value; read-out: IC50 in HeLa cell line; cited from earlier work

T2 sequence (O95817 whole entry): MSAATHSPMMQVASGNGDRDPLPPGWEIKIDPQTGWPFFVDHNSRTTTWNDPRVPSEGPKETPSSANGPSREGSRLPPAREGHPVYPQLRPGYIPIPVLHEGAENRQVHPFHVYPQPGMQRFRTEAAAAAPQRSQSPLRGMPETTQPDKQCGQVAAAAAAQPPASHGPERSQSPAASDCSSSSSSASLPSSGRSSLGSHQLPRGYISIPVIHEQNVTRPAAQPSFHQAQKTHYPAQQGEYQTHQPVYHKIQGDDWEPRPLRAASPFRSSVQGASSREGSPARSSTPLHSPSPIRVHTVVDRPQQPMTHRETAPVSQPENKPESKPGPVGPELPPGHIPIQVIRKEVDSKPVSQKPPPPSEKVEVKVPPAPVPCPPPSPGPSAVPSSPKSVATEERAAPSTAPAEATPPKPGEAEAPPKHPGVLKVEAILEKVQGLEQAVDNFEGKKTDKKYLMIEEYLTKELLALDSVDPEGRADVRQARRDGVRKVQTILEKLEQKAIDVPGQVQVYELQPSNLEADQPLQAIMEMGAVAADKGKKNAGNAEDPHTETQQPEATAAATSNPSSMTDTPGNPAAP

| BAG3–BD KD ± SD [1] | Kd [1] [µM] | Kd [2] [µM] | Compound | BAG3 FULL KD ± SD [2] | IC50 [3] [µM] |
| --- | --- | --- | --- | --- | --- |
| low micromolar range | 1.87 ± 0.03 | 3.31 ± 0.18 | O=C(OCc1cn(COCc2ccccc2)nn1)c1cccc([N+](=O)[O-])c1 [Compound 1, (1‐((Benzyloxy)methyl)‐1H‐1,2,3‐triazol‐4‐yl)methyl 3‐nitrobenzoate] | low micromolar range |  |
| not able to bind |  |  | O=C(OCc1cn(Cc2cccc3ccccc23)nn1)c1cccc([N+](=O)[O-])c1 [Compound 3, (1‐(Naphthalen‐1‐ylmethyl)‐1H‐1,2,3‐triazol‐4‐yl)methyl 3‐nitrobenzoate] | not able to bind; also recorded: No binding |  |
| not able to bind |  |  | Cc1cc(C)n(-c2cccc(Cn3cc(COC(=O)c4cccc([N+](=O)[O-])c4)nn3)c2)n1 [Compound 4, (1‐(3‐(3,5‐Dimethyl‐1H‐pyrazol‐1‐yl)benzyl)‐1H‐1,2,3‐triazol‐4‐yl)methyl 3‐nitrobenzoate] | not able to bind; also recorded: No binding |  |
|  | 8.27 ± 0.98 | 12.5 ± 2.26 | O=C(OCc1cn(Cc2ccc3ccccc3n2)nn1)c1cccc([N+](=O)[O-])c1 [Compound 5, (1‐(Quinolin‐2‐ylmethyl)‐1H‐1,2,3‐triazol‐4‐yl)methyl 3‐nitrobenzoate] |  |  |
|  | 2.78 ± 0.88 | 24 ± 4.6 | O=C(OCc1cn(Cc2ccc3ccccc3n2)nn1)c1ccnc(Cl)c1 [Compound 6, (1‐(Quinolin‐2‐ylmethyl)‐1H‐1,2,3‐triazol‐4‐yl)methyl 2‐chloroisonicotinate] |  |  |
|  | 6.32 ± 0.12 | 11.4 ± 2.43 | Nc1ccc(C(=O)OCc2cn(Cc3ccc4ccccc4n3)nn2)cc1Br [Compound 7, (1‐(Quinolin‐2‐ylmethyl)‐1H‐1,2,3‐triazol‐4‐yl)methyl 4‐amino‐3‐bromobenzoate] |  |  |
|  | 2.43 ± 0.09 | 12.6 ± 1.2 | O=C(OCc1cn(Cc2ccc3ccccc3n2)nn1)c1ccccc1I [Compound 8, (1‐(Quinolin‐2‐ylmethyl)‐1H‐1,2,3‐triazol‐4‐yl)methyl 2‐iodobenzoate] |  |  |
|  |  |  | Cc1cc(C)n(-c2cccc(Cn3cc(COC(=O)c4ccc(N)c(Br)c4)nn3)c2)n1 [Compound 9, (1‐(3‐(3,5‐Dimethyl‐1H‐pyrazol‐1‐yl)benzyl)‐1H‐1,2,3‐triazol‐4‐yl)methyl 4‐amino‐3‐bromobenzoate] | did not show the ability to bind; also recorded: No binding |  |
|  |  |  | Nc1ccc(C(=O)OCc2cn(Cc3cccc4ccccc34)nn2)cc1Br [Compound 10, (1‐(Naphthalen‐1‐ylmethyl)‐1H‐1,2,3‐triazol‐4‐yl)methyl 4‐amino‐3‐bromobenzoate] | did not show a satisfactory binding; also recorded: No binding |  |
|  |  |  | CCOC(=O)CN1C(=O)S/C(=C\c2ccc(O)c(O)c2)C1=O [LK4, (Z)‐ethyl 2‐(5‐(3,4‐dihydroxybenzylidene)‐2,4‐dioxothiazolidin‐3‐yl)acetate] |  | > 50 |
